# In patent US7803930B2, “Antisense modulation of apolipoprotein B-expression” (Isis Pharmaceuticals, Inc., priority 2002, dated 2010):
# In the oligonucleotide strings, read from the 5' end, every base follows the letter of its sugar. An asterisk marks phosphorothioate; unmarked linkages are phosphodiester. Other units and linkages are bracketed, terminal groups are in braces. A string of capitals states the bases alone. e = 2'-O-(2-methoxyethyl) (MOE); [5mC] = 5-methylcytosine; d = 2'-deoxy (DNA)
# System: human apolipoprotein B mRNA
# Assay: Inhibition of human apolipoprotein B mRNA levels in HepG2 cells, quantitative real-time PCR
# Type: cell-based
# Details: HepG2 cells treated with 150 nM of compound; averages from two experiments; quantitative real-time PCR
# Outline: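 HepG2 cells at 80% confluency were transfected with antisense oligonucleotide using 3.75 μg/mL Lipofectin in Opti-MEM for 4-7 h and harvested 16-24 h after treatment. Apolipoprotein B mRNA was measured by real-time RT-PCR and normalized to GAPDH or RiboGreen total RNA. Percent inhibition came from untreated-control standard curves.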
row,Substance,% INHIB (inhibition of human apolipoprotein B mRNA levels)
1,281634 (antisense e[5mC]*eT*e[5mC]*eT*e[5mC]*dG*dA*dT*dT*dA*dA*d[5mC]*dT*d[5mC]*dA*eT*eG*eG*eA*e[5mC]) [compound 281634],81%
2,281635 (antisense eA*eT*eA*e[5mC]*eA*d[5mC]*dT*dG*d[5mC]*dA*dA*d[5mC]*dT*dG*dT*eG*eG*e[5mC]*e[5mC]*eT) [compound 281635],89%
3,281636 (antisense eG*e[5mC]*eA*eA*eG*dA*dG*dT*d[5mC]*d[5mC]*dA*d[5mC]*d[5mC]*dA*dA*eT*e[5mC]*eA*eG*eA) [compound 281636],68%
4,281637 (antisense eA*eG*eA*eG*e[5mC]*d[5mC]*dT*dG*dA*dA*dG*dA*d[5mC]*dT*dG*eA*e[5mC]*eT*eT*e[5mC]) [compound 281637],74%
5,281638 (antisense eT*e[5mC]*e[5mC]*e[5mC]*eT*d[5mC]*dA*dT*d[5mC]*dT*dG*dA*dG*dA*dA*eT*e[5mC]*eT*eG*eG) [compound 281638],66%
6,281640 (e[5mC]*eA*eG*eT*eG*d[5mC]*dA*dT*d[5mC]*dA*dA*dT*dG*dA*d[5mC]*eA*eG*eA*eT*eG; antisense) [compound 281640],87%
7,281641 (e[5mC]*e[5mC]*eG*eA*eA*d[5mC]*d[5mC]*d[5mC]*dT*dT*dG*dA*d[5mC]*dA*dT*e[5mC]*eT*e[5mC]*e[5mC]*eT; antisense) [compound 281641],72%
8,281642 (eG*e[5mC]*e[5mC]*eT*e[5mC]*dA*d[5mC]*dT*dA*dG*d[5mC]*dA*dA*dT*dA*eG*eT*eT*e[5mC]*e[5mC]; antisense) [compound 281642],59%
9,281643 (eG*eA*e[5mC]*eA*eT*dT*dT*dG*d[5mC]*d[5mC]*dA*dT*dG*dG*dA*eG*eA*eG*eA*eG; antisense) [compound 281643],61%
10,281644 (e[5mC]*eT*eG*eT*e[5mC]*dT*d[5mC]*d[5mC]*dT*dA*d[5mC]*d[5mC]*dA*dA*dT*eG*e[5mC]*eT*eG*eG; antisense) [compound 281644],26%
11,281645 (eT*e[5mC]*eT*eG*e[5mC]*dA*d[5mC]*dT*dG*dA*dA*dG*dT*d[5mC]*dA*e[5mC]*eG*eG*eT*eG; antisense) [compound 281645],78%
12,281646 (eT*e[5mC]*e[5mC]*e[5mC]*eG*dG*dA*d[5mC]*d[5mC]*d[5mC]*dT*d[5mC]*dA*dA*d[5mC]*eT*e[5mC]*eA*eG*eT; antisense) [compound 281646],76%
13,281648 (eG*e[5mC]*eA*eG*eG*dT*d[5mC]*d[5mC]*dA*dG*dT*dT*d[5mC]*dA*dT*eA*eT*eG*eT*eG; antisense) [compound 281648],81%
14,281649 (eG*e[5mC]*e[5mC]*eA*eT*d[5mC]*d[5mC]*dT*dT*d[5mC]*dT*dG*dA*dG*dT*eT*e[5mC]*eA*eG*eA; antisense) [compound 281649],76%
15,301013 (e[5mC]*e[5mC]*e[5mC]*e[5mC]*eG*d[5mC]*dA*dG*dG*dT*d[5mC]*d[5mC]*d[5mC]*dG*dG*eT*eG*eG*eG*eA; antisense) [compound 301013],82%
16,301015 (e[5mC]*eA*eA*e[5mC]*e[5mC]*dG*dA*dG*dA*dA*dG*dG*dG*d[5mC]*dA*e[5mC]*eT*e[5mC]*eA*eG; antisense) [compound 301015],53%
17,301016 (e[5mC]*e[5mC]*eT*e[5mC]*eA*dG*d[5mC]*dG*dG*d[5mC]*dA*dG*d[5mC]*dA*dA*e[5mC]*e[5mC]*eG*eA*eG; antisense) [compound 301016],62%
18,301017 (eT*e[5mC]*e[5mC]*eT*e[5mC]*dA*dG*d[5mC]*dG*dG*d[5mC]*dA*dG*d[5mC]*dA*eA*e[5mC]*e[5mC]*eG*eA; antisense) [compound 301017],47%
19,301018 (e[5mC]*eT*e[5mC]*e[5mC]*eT*d[5mC]*dA*dG*d[5mC]*dG*dG*d[5mC]*dA*dG*d[5mC]*eA*eA*e[5mC]*e[5mC]*eG; antisense) [compound 301018],45%
20,301019 (eG*eG*e[5mC]*eT*e[5mC]*d[5mC]*dT*d[5mC]*dA*dG*d[5mC]*dG*dG*d[5mC]*dA*eG*e[5mC]*eA*eA*e[5mC]; antisense) [compound 301019],70%

row,Substance,% INHIB (inhibition of human apolipoprotein B mRNA levels)
1,301020 (eG*eG*e[5mC]*eG*eG*dG*d[5mC]*dT*d[5mC]*d[5mC]*dT*d[5mC]*dA*dG*d[5mC]*eG*eG*e[5mC]*eA*eG; antisense) [compound 301020],85%
2,301022 (eG*eG*e[5mC]*eG*eG*dG*dT*d[5mC]*d[5mC]*dA*dT*d[5mC]*dG*d[5mC]*d[5mC]*eA*eG*e[5mC]*eT*eG; antisense) [compound 301022],69%
3,301023 (eT*eA*eG*eA*eG*dG*dA*dT*dG*dA*dT*dA*dG*dT*dA*eA*eG*eT*eT*e[5mC]; antisense) [compound 301023],69%
4,301024 (eA*eA*eA*eT*eG*dA*dA*dG*dA*dT*dT*dT*d[5mC]*dT*dT*eT*eT*eA*eA*eA; antisense) [compound 301024],5%
5,301025 (eT*eA*eT*eG*eT*dG*dA*dA*dA*dG*dT*dT*d[5mC]*dA*dA*eT*eT*eG*eG*eA; antisense) [compound 301025],76%
6,301026 (eA*eT*eA*eT*eA*dG*dG*d[5mC]*dA*dG*dT*dT*dT*dG*dA*eA*eT*eT*eT*eT; antisense) [compound 301026],57%
7,301032 (e[5mC]*eT*eA*e[5mC]*eT*dG*d[5mC]*dA*dA*dG*dG*d[5mC]*dT*dG*dG*e[5mC]*eT*e[5mC]*eA*e[5mC]; antisense) [compound 301032],63%
8,301033 (eA*e[5mC]*eT*eG*e[5mC]*d[5mC]*dT*dA*d[5mC]*dT*dG*d[5mC]*dA*dA*dG*eG*e[5mC]*eT*eG*eG; antisense) [compound 301033],77%
9,301034 (eT*eG*e[5mC]*eT*eT*dA*dT*dA*dG*dT*d[5mC]*dT*dA*d[5mC]*dT*eG*e[5mC]*e[5mC]*eT*eA; antisense) [compound 301034],88%
10,301035 (eT*eT*e[5mC]*eT*eG*d[5mC]*dT*dT*dA*dT*dA*dG*dT*d[5mC]*dT*eA*e[5mC]*eT*eG*e[5mC]; antisense) [compound 301035],82%
11,301036 (eT*eT*eT*eG*eG*dT*dG*d[5mC]*dA*dG*dG*dT*d[5mC]*d[5mC]*dA*eG*eT*eT*e[5mC]*eA; antisense) [compound 301036],88%
12,301039 (eT*eG*eG*eT*eG*d[5mC]*d[5mC]*dA*dG*d[5mC]*dT*dT*dT*dG*dG*eT*eG*e[5mC]*eA*eG; antisense) [compound 301039],73%
13,301040 (eG*e[5mC]*e[5mC]*e[5mC]*eT*dG*dG*dT*dG*d[5mC]*d[5mC]*dA*dG*d[5mC]*dT*eT*eT*eG*eG*eT; antisense) [compound 301040],74%
14,301041 (eG*eA*eG*eT*eT*d[5mC]*dA*dG*dA*dG*dA*d[5mC]*d[5mC]*dT*dT*e[5mC]*e[5mC]*eG*eA*eG; antisense) [compound 301041],85%
15,301042 (eA*eA*eA*eT*eG*d[5mC]*d[5mC]*dA*dT*d[5mC]*d[5mC]*dT*dT*d[5mC]*dT*eG*eA*eG*eT*eT; antisense) [compound 301042],81%
16,301043 (eA*eA*eA*eA*eA*dT*dG*d[5mC]*d[5mC]*dA*dT*d[5mC]*d[5mC]*dT*dT*e[5mC]*eT*eG*eA*eG; antisense) [compound 301043],81%
17,301044 (eA*eA*eA*eA*eT*dA*dA*d[5mC]*dT*d[5mC]*dA*dG*dA*dT*d[5mC]*e[5mC]*eT*eG*eA*eT; antisense) [compound 301044],76%
18,301046 (eA*eG*eT*eT*eT*dA*dG*d[5mC]*dA*dA*dA*dA*dT*dA*dA*e[5mC]*eT*e[5mC]*eA*eG; antisense) [compound 301046],80%
19,301047 (eT*e[5mC]*e[5mC]*e[5mC]*e[5mC]*d[5mC]*dA*dA*dG*dT*dT*dT*dA*dG*d[5mC]*eA*eA*eA*eA*eT; antisense) [compound 301047],56%
20,301048 (eT*eT*e[5mC]*e[5mC]*eT*d[5mC]*d[5mC]*dT*d[5mC]*d[5mC]*d[5mC]*d[5mC]*d[5mC]*dA*dA*eG*eT*eT*eT*eA; antisense) [compound 301048],67%

# Same assay, conditions: Table 12; HepG2 cells, 150 nM; averages from two experiments
row,Substance,% INHIB
1,281639 (antisense eG*eA*e[5mC]*eG*eT*d[5mC]*dA*dG*dA*dA*d[5mC]*d[5mC]*dT*dA*dT*eG*eA*eT*eG*eG) [compound 281639],38%
2,281647 (eT*eG*eA*eG*eT*dG*dA*dG*dT*d[5mC]*dA*dA*dT*d[5mC]*dA*eG*e[5mC]*eT*eT*e[5mC]) [compound 281647],73%

# Same assay, conditions: Table 19 dose response; HepG2 cells, 37 nM; normalized to untreated control
row,Substance,% inhibition 37 nM
1,301034 (eT*eG*e[5mC]*eT*eT*dA*dT*dA*dG*dT*d[5mC]*dT*dA*d[5mC]*dT*eG*e[5mC]*e[5mC]*eT*eA; antisense) [compound 301034],73%
2,301036 (eT*eT*eT*eG*eG*dT*dG*d[5mC]*dA*dG*dG*dT*d[5mC]*d[5mC]*dA*eG*eT*eT*e[5mC]*eA; antisense) [compound 301036],67%

# Same assay, conditions: Table 19 dose response; HepG2 cells, 75 nM; normalized to untreated control
row,Substance,% inhibition 75 nM
1,301034 (eT*eG*e[5mC]*eT*eT*dA*dT*dA*dG*dT*d[5mC]*dT*dA*d[5mC]*dT*eG*e[5mC]*e[5mC]*eT*eA; antisense) [compound 301034],87%
2,301036 (eT*eT*eT*eG*eG*dT*dG*d[5mC]*dA*dG*dG*dT*d[5mC]*d[5mC]*dA*eG*eT*eT*e[5mC]*eA; antisense) [compound 301036],83%

# Same assay, conditions: Table 19 dose response; HepG2 cells, 150 nM; normalized to untreated control
row,Substance,% inhibition 150 nM
1,301034 (eT*eG*e[5mC]*eT*eT*dA*dT*dA*dG*dT*d[5mC]*dT*dA*d[5mC]*dT*eG*e[5mC]*e[5mC]*eT*eA; antisense) [compound 301034],93%
2,301036 (eT*eT*eT*eG*eG*dT*dG*d[5mC]*dA*dG*dG*dT*d[5mC]*d[5mC]*dA*eG*eT*eT*e[5mC]*eA; antisense) [compound 301036],92%

# Same assay, conditions: Table 19 dose response; HepG2 cells, 300 nM; normalized to untreated control
row,Substance,% inhibition 300 nM
1,301034 (eT*eG*e[5mC]*eT*eT*dA*dT*dA*dG*dT*d[5mC]*dT*dA*d[5mC]*dT*eG*e[5mC]*e[5mC]*eT*eA; antisense) [compound 301034],97%
2,301036 (eT*eT*eT*eG*eG*dT*dG*d[5mC]*dA*dG*dG*dT*d[5mC]*d[5mC]*dA*eG*eT*eT*e[5mC]*eA; antisense) [compound 301036],95%
